Test: aqueous solubility
Type: physicochemical
Conditions: aqueous environment, water; aqueous environments; about 22° C. unless otherwise specified
Source text: The CETP inhibitor may be any compound capable of inhibiting the cholesteryl ester transfer protein. Solid amorphous dispersions are particularly useful for CETP inhibitors that have sufficiently low aqueous solubility, low bioavailability or slow rate of absorption such that it is desirable to increase their concentration in an aqueous environment of use. The CETP inhibitor is typically “sparingly water-soluble,” which means that the CETP inhibitor has a minimum aqueous solubility of less than about 1 to 2 mg/mL at any physiologically relevant pH (e.g., pH 1-8) and at about 22° C. Many CETP inhibitors are “substantially water-insoluble,” which means that the CETP inhibitor has a minimum aqueous solubility of less than about 0.01 mg/mL (or 10 μg/ml) at any physiologically relevant pH (e.g., pH 1-8) and at about 22° C. (Unless otherwise specified, reference to aqueous solubility herein and in the claims is determined at about 22° C.) Compositions of the present invention find greater utility as the solubility of the CETP inhibitors decreases, and thus are preferred for CETP inhibitors with solubilities less than about 10 μg/mL, more preferred for CETP inhibitors with solubilities less than about 2 μg/mL, and even more preferred for CETP inhibitors with solubilities less than about 1 μg/mL. […]

solubility: < 0.04 µg/mL
SMILES: CCOC(=O)N1c2ccc(C(F)(F)F)cc2[C@@H](N(Cc2cc(C(F)(F)F)cc(C(F)(F)F)c2)C(=O)OC)C[C@H]1CC [torcetrapib, [2R,4S]-4-[(3,5-bis-trifluoromethyl-benzyl)-methoxycarbonyl-amino]-2-ethyl-6-trifluoromethyl-3,4-dihydro-2H-quinoline-1-carboxylic acid ethyl ester]

From US8828438B2, “Pharmaceutical compositions of cholesteryl ester transfer protein inhibitors and HMG-CoA reductase” (Bend Research, Inc., priority 2005, dated 2014)
